One data set has as its system HEK293T cells. The data set is described as follows: CellTiter-Glo cytotoxicity of selected compounds (manual, 72 h). Type of data set: cell-based, human. The conditions noted are these: up to 10 μM. The method, then: (§1) Assessment of gene expression and essentiality in RKO WT
(§2) Fluorescence Polarization‐based competition assay
(§3) EC50 values were calculated with GraphPad Prism […]
(§4) the FP value of free tracer. […]
(§5) instructions. […] For the screening of the whole SuFEx
(§6) Data visualization was done with seaborn
(§7) (https://seaborn.pydata.org, version 0.12.2). […]
(§8) compounds. (F) Analysis of the cytotoxicity of compounds with treatment‐centric features related to FL2‐ […]
(§9) Synthesis and in Vitro Evaluation of Diverse Heterocyclic Diphenolic Compounds as Inhibitors of DYRK1A.
(§10) (7) Zhang, J.‐H.; Chung, T. D. Y.; Oldenburg, K. R. A Simple Statistical Parameter for Use in Evaluation and Validation of High Throughput Screening Assays. SLAS Discov.
For orientation: In ATP-based viability assays light output follows the ATP content of the culture.

For a further data set, the system named is RKO WT cells. Described as above. Particulars: up to 10 μM. Type of data set: cell-based, human. The method, then: as §1, §2, §3, §4, §5, §6, §7, §8, §9, §10
In a further data set the target is T1, recombinant DDB1-CRBN (Homo sapiens, UniProt Q96SW2).
T1 construct: His; made in house; host or cells: High Five insect cells (baculovirus made and propagated in SF9 cells)
The data set is described as follows: Fluorescence polarization-based competition assay for CRBN binding. The method, then:
Prior to screening the compound library in the isogenic CPA, we assessed their CRBN binding affinities using a fluorescence-polarization-based competition assay with recombinant DDB1-CRBN and the fluorescent tracer 16 (Figure S2). […] We also assessed the cytotoxicity of the CRBN binders in RKO wild-type (WT) cells to determine the appropriate treatment concentration. […]
as §2
Fluorescence Polarization assays were performed in 384‐well, Low Volume, Black, Round Bottom, Polystyrene Nonbinding surface Microplates (Corning, #4514). The test compounds were incubated with 200 nM CRBN‐DDB1 and 20 nM Pomalidomide‐fluorescein tracer 16 in 50 mM Tris‐HCl pH 7.5, 200 mM NaCl, 1 mM DTT, 0.02% Triton X‐ 100, and 0.1 µg/µL Bovine Serum Albumin (Sigma Aldrich, #A7030) in a total volume of 25 µL. Fluorescence polarization values were determined with a PerkinElmer Envision reader with FITC FP dual mirror and FITC FP 480 excitation filter and FITC FP 535 emission filters. Fluorescence polarization values of a 10x serial dilution (10 nM to 100 µM) of the test compounds were determined in triplicates. EC50 values were calculated with GraphPad Prism software (version 10.0.2) with a non‐linear fit function (4PL sigmoidal curve fit) adjusting the bottom constrain to the FP value of free tracer. […]
On the technique in general: In fluorescence polarisation assays a small probe gives low polarisation when free and higher when bound to something large.

In a further data set the target is T2, GSPT2 (Homo sapiens, UniProt Q8IYD1+Q96SW2).
T2 construct: endogenous in cells; host or cells: RKO WT or RKO CRBN KO
The data set is described as follows: Western blot analysis of GSPT1 and GSPT2 degradation in RKO WT or CRBN KO cells. Type of data set: cell-based. The conditions noted are these: RKO WT or RKO CRBN KO, 10 µM, 16 h. On the procedure:
(A) Structure of FL2-14 comprising fluorosulfate scaffold FL2 (black) and tail group modification 14 (blue). (B) DMSO-normalized quantitative proteomics after 16 h of treatment with FL2-14 (10 μM) in RKO WT (n = 2). […] (C) Structural alignment of AlphaFold models of GSPT1 (AF-P15170-F1-model_v4 in gray) and GSPT2 (AF-Q8IYD1-F1-model_v4 in blue). (D) Validation of GSPT2 degradation by FL2-14. […] (E) Dose–response of FL2-14 in RKO and HEK293T cells. Cells were treated with the FL2-14 (0 to 10 μM) for 16 h. (F) Degradation of GSPT2^WT or GSPT2^G566N. […]
Analysis of targeted protein degradation of GSPT1 and GSPT2 via western blot For degradation assays 800 000 RKO WT or CRBN KO cells were seeded 1 day prior to the treatment in 6 well plates.
Then, cells were treated with 10 µM of the compounds for 16 hours if not otherwise stated. Cells were harvested, lysed for 30 min at 37°C in lysis buffer (1x PBS, 1% SDS, 2 mM MgCl2, 1x Halt Protease inhibitor cocktail, 50 Units Benzonase) and cleared for 30 min at 18 000 x g at 4°C. Protein concentration was determined with the Pierce 660 nm Protein Assay using the Ionic Detergent Compatibility Reagent (Thermo Scientific). 10 µg total proteome were subjected to western blot analysis by adding 4x Bolt™ LDS Sample Buffer (Thermo Scientific). Samples were boiled at 95°C for 5 min and subjected to gel electrophoresis with Bolt™ 4‐12% Bis‐Tris Plus Gels (Thermo Scientific) with Bolt™ MES SDS Running Buffer (Thermo Scientific). Membranes were blocked with 5% fat‐free milk in TBS‐T (20 mM Tris, 150 mM NaCl, 0.1% Tween, pH 7.6) for 1 h at room temperature and washed subsequently 3x 5 min with TBS‐
T. Afterwards, they were incubated for 1 h at room temperature with either GSPT1 antibody (Abcam ab49878, rabbit, […]
rabbit, 1:10 000), CRBN (Cell Signaling Technologies, CST71810S, rabbit, 1:1000), or GAPDH (SantaCruz sc‐47724, mouse, 1:1 000). Followed by washing 3x 5 min with TBS‐T and incubation for 1 h at room temperature with either Goat ANTI‐RABBIT IgG StarBright™ Blue 700 (Bio‐Rad, #12004162, 1:10 000) or Goat anti‐Mouse IgG (H+L) Cross‐ Adsorbed Secondary Antibody, DyLight™ 800 (Bio‐Rad, STAR117D800GA, 1:10 000) fluorophore‐conjugated
A general note: A western blot detects proteins with antibodies after separation by electrophoresis.

For data set [1], the system named is RKO WT, RKO CRBN KO and RKO CRBN OE. The data set is described as follows: Isogenic cell painting assay, treatment-centric feature selection and CRBN-dependency prediction. Type of data set: cell-based, human.
Where [2] appears, read: 200 nM CRBN-DDB1, 20 nM pomalidomide-fluorescein tracer 16, triplicates, read-out: FP_CRBN_binding: CRBN binding affinity, EC50.

The text below walks through data of publication PMC10764104, “Discovery of Molecular Glue Degraders via Isogenic Morphological Profiling” (ACS Chemical Biology, 2023).

Broadly, the EC50 is the midpoint of the concentration-response curve.

Read-outs that look alike come from different tables or passages of the source.

On to `O=C1CCC(N2C(=O)c3ccc(Nc4cccc(OS(=O)(=O)N5CC(CCO)C5)c4)cc3C2=O)C(=O)N1` (stereo not shown) [FL1-2], for which the EC50 in the data set with HEK293T cells was above 10000 nM; with RKO WT cells, above 10000 nM; at recombinant DDB1-CRBN (setting [2]), 419 nM.

Consider `O=C1CCC(N2C(=O)c3ccc(Nc4cccc(OS(=O)(=O)N5CCC(c6ccco6)C5)c4)cc3C2=O)C(=O)N1` (stereo not shown) [FL1-12], for which the EC50 in the data set on HEK293T cells was above 10000 nM; with RKO WT cells, above 10000 nM; on recombinant DDB1-CRBN (setting [2]), 2780 nM.

With `CN(Cc1ncc(C2CC2)o1)S(=O)(=O)Oc1cccc(Nc2ccc3c(c2)C(=O)N(C2CCC(=O)NC2=O)C3=O)c1` (stereo not shown) [FL1-14], on GSPT2, the “GSPT1/2 degradation by CRBN binders with tail group modification 14” value is listed as “weak degradation of GSPT2”. For the same compound, the EC50 at recombinant DDB1-CRBN (setting [2]) came to 395 nM.

Regarding `CN(C)c1ncc(CN(C)S(=O)(=O)Oc2cccc(Nc3ccc4c(c3)C(=O)N(C3CCC(=O)NC3=O)C4=O)c2)cn1` (stereo not shown) [FL1-18], the figures for the EC50 in the data set on HEK293T cells, with RKO WT cells and on recombinant DDB1-CRBN (setting [2]) were above 10000 nM, above 10000 nM and 363 nM, respectively.

As for `C[C@@H](O)CN(C)S(=O)(=O)Oc1cccc(C2CCC(=O)NC2=O)c1` (stereo partly shown) [FL6-1], the EC50 on recombinant DDB1-CRBN (setting [2]) turned out to be 584 nM.

Regarding `O=C1CCC(c2cccc(OS(=O)(=O)N3CC(CCO)C3)c2)C(=O)N1` (stereo not shown) [FL6-2], at recombinant DDB1-CRBN (setting [2]), the EC50 turned out to be 1250 nM.

As for `CC(C)(O)C1CCN(S(=O)(=O)Oc2cccc(C3CCC(=O)NC3=O)c2)C1` (stereo not shown) [FL6-4], the half-maximal effective concentration (EC50) at recombinant DDB1-CRBN (setting [2]) worked out at 1300 nM.

Regarding `O=C1CCC(c2cccc(OS(=O)(=O)N3CCOCC3)c2)C(=O)N1` (stereo not shown) [FL6-5], on recombinant DDB1-CRBN (setting [2]), the EC50 is 679 nM.

As for `C[C@@H]1C[C@H](C)CN(S(=O)(=O)Oc2cccc(C3CCC(=O)NC3=O)c2)C1` (stereo partly shown) [FL6-6], at recombinant DDB1-CRBN (setting [2]), the EC50 came to 961 nM.

Turning to `CC1(C)CN(S(=O)(=O)Oc2cccc(C3CCC(=O)NC3=O)c2)CCS1(=O)=O` (stereo not shown) [FL6-7], on recombinant DDB1-CRBN (setting [2]), the EC50 is 743 nM.

Regarding `CC1(C)CN(S(=O)(=O)Oc2cccc(C3CCC(=O)NC3=O)c2)CC2(CCOC2)O1` (stereo not shown) [FL6-8], the EC50 at recombinant DDB1-CRBN (setting [2]) was determined as 1340 nM.

As to `O=C1CCC(c2cccc(OS(=O)(=O)N3CC4(CNC(=O)N4)C3)c2)C(=O)N1` (stereo not shown) [FL6-9], the EC50 at recombinant DDB1-CRBN (setting [2]) was determined as 713 nM.

Take `O=C1CCC(c2cccc(OS(=O)(=O)N3C[C@@H](F)[C@H](F)C3)c2)C(=O)N1` (stereo partly shown) [FL6-10]: on recombinant DDB1-CRBN (setting [2]), the EC50 was determined as 1140 nM.

Turning to `CN(Cc1ncnn1C)S(=O)(=O)Oc1cccc(C2CCC(=O)NC2=O)c1` (stereo not shown) [FL6-11], the EC50 at recombinant DDB1-CRBN (setting [2]) was 887 nM.

Regarding `O=C1CCC(c2cccc(OS(=O)(=O)N3CCC(c4ccco4)C3)c2)C(=O)N1` (stereo not shown) [FL6-12], the EC50 at recombinant DDB1-CRBN (setting [2]) is 570 nM.

Turning to `Cc1cn2c(n1)CN(S(=O)(=O)Oc1cccc(C3CCC(=O)NC3=O)c1)CC2` (stereo not shown) [FL6-13], at recombinant DDB1-CRBN (setting [2]), the EC50 was found to be 1080 nM.

As for `CN(Cc1ncc(C2CC2)o1)S(=O)(=O)Oc1cccc(C2CCC(=O)NC2=O)c1` (stereo not shown) [FL6-14], the EC50 at recombinant DDB1-CRBN (setting [2]) was 837 nM.

For `CN(Cc1ccc2[nH]nnc2c1)S(=O)(=O)Oc1cccc(C2CCC(=O)NC2=O)c1` (stereo not shown) [FL6-15], the EC50 at recombinant DDB1-CRBN (setting [2]) came to 520 nM.

For the compound `O=C1CCC(c2cccc(OS(=O)(=O)N3CCC(c4ccncc4)CC3)c2)C(=O)N1` (stereo not shown) [FL6-16], the EC50 on recombinant DDB1-CRBN (setting [2]) was 645 nM.

In the case of `CC1c2cc(F)ccc2CCN1S(=O)(=O)Oc1cccc(C2CCC(=O)NC2=O)c1` (stereo not shown) [FL6-17], the EC50 at recombinant DDB1-CRBN (setting [2]) amounted to 803 nM.

Turning to `CN(C)c1ncc(CN(C)S(=O)(=O)Oc2cccc(C3CCC(=O)NC3=O)c2)cn1` (stereo not shown) [FL6-18], the EC50 at recombinant DDB1-CRBN (setting [2]) was determined as 794 nM.

As for `CC1c2cccn2CCN1S(=O)(=O)Oc1cccc(C2CCC(=O)NC2=O)c1` (stereo not shown) [FL6-19], on recombinant DDB1-CRBN (setting [2]), the EC50 is 874 nM.

On to `CN(Cc1ccc2c(c1)OCO2)S(=O)(=O)Oc1cccc(C2CCC(=O)NC2=O)c1` (stereo not shown) [FL6-20], for which the EC50 at recombinant DDB1-CRBN (setting [2]) worked out at 622 nM.

For `CN(C1CC1)S(=O)(=O)Oc1cccc(C2CCC(=O)NC2=O)c1` (stereo not shown) [FL6-21], on recombinant DDB1-CRBN (setting [2]), the EC50 was 1070 nM.

Take `O=C1CCC(c2ccccc2OS(=O)(=O)F)C(=O)N1` (stereo not shown) [FL7]: on recombinant DDB1-CRBN, the EC50 was 72400 nM.

`CN1C(=O)CCC(N2C(=O)c3cccc(N)c3C2=O)C1=O` (stereo not shown) [Methylated pomalidomide]: the “Number_Features: number of treatment-centric features selected” value in data set [1] was 0.

Take `COc1cc(N2CCN(CCOCCOCCNC(=O)CNc3cccc4c3C(=O)N(C3CCC(=O)NC3=O)C4=O)CC2)ccc1Nc1ncc(Cl)c(Nc2ccccc2S(=O)(=O)C(C)C)n1` (stereo not shown) [TL 13-12]: in data set [1] (1.5 μM, RKO CRBN OE vs RKO CRBN KO), the “change of cell size across isogenic RKO cells” value was “enlarges cells drastically in a CRBN-dependent manner”.
